In ChEMBL document CHEMBL1150369, “Conformation-opioid activity relationships of bicyclic guanidines from 3D similarity analysis” (Bioorg Med Chem, 2008):

biological target: Mu-type opioid receptor (Homo sapiens, UniProt P35372); experiment: Binding affinity at mu opioid receptor
Sequence (P35372 whole entry): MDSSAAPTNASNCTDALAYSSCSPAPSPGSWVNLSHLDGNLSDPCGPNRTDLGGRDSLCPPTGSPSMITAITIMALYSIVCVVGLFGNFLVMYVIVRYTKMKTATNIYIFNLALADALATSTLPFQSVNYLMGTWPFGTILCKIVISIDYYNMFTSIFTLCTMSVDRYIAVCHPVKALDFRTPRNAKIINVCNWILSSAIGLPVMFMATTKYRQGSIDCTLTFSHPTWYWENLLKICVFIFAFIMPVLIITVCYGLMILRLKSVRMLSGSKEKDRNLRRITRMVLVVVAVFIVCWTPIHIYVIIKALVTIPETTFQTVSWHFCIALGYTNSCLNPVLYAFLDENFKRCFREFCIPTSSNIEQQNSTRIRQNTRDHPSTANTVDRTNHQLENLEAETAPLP

SMILES | IC50
COc1ccc(C[C@@H]2CN3C(=NC[C@@H]3C)N2CCC2CC3CCC2C3)cc1 (stereo not given in full) | 20300 nM
COc1ccc(C[C@H]2CN3C(=NC[C@@H]3C)N2CCCC2CCCCC2)cc1 | 421 nM

biological target: Delta-type opioid receptor (Homo sapiens, UniProt P41143); experiment: Binding affinity at delta opioid receptor
Sequence (P41143 whole entry): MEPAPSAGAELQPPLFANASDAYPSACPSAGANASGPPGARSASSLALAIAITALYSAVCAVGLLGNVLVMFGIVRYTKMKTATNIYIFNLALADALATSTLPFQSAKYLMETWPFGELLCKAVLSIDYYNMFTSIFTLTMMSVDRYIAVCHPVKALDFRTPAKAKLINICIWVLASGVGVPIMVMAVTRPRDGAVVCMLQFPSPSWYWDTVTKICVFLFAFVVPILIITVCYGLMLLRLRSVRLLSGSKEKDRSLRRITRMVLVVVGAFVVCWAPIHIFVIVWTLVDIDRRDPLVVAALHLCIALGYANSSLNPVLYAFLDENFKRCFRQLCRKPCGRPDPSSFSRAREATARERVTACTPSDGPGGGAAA

SMILES | IC50
COc1ccc(C[C@@H]2CN3C(=NC[C@@H]3C)N2CCC2CC3CCC2C3)cc1 (stereo not given in full) | 2070 nM
COc1ccc(C[C@H]2CN3C(=NC[C@@H]3C)N2CCCC2CCCCC2)cc1 | 5460 nM

biological target: Kappa-type opioid receptor (Cavia porcellus, UniProt P41144); experiment: Displacement of [3H]U69593 from kappa opioid receptor in guinea pig brain homogenate; format: tissue-based
Sequence (P41144 whole entry): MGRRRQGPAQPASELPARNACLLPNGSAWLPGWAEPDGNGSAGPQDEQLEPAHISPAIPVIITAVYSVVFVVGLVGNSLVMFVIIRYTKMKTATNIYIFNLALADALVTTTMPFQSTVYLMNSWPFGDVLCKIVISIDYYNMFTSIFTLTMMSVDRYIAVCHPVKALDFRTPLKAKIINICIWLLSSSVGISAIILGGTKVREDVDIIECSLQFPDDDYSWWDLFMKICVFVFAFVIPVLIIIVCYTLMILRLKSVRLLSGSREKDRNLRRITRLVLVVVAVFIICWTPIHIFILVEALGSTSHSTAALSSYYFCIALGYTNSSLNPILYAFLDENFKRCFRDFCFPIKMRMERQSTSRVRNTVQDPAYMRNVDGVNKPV

IC50 | SMILES
1210 nM | CC(C)C[C@@H]1CN2C(=NC[C@@H]2C2CCCCC2)N1CCC12CC3CC(CC(C3)C1)C2
1490 nM | C1CCC([C@H]2CN3C(=NC[C@@H]3C3CCCCC3)N2CCC23CC4CC(CC(C4)C2)C3)CC1
1750 nM | CC(C)C[C@@H]1CN2C(=NC[C@H]2C2CCCCC2)N1CCC12CC3CC(CC(C3)C1)C2
1940 nM | C[C@H]1CN=C2N(CCC34CC5CC(CC(C5)C3)C4)[C@@H](C3CCCCC3)CN21
3640 nM | CC(C)C[C@@H]1CN2C(=NC[C@@H]2C)N1CCC12CC3CC(CC(C3)C1)C2
> 10000 nM | C1CCC([C@H]2CN3C(=NC[C@H]3C3CCCCC3)N2CCC23CC4CC(CC(C4)C2)C3)CC1
151 nM | CCOc1ccc(C[C@@H]2CN3C(=NC[C@@H]3C)N2CCC23CC4CC(CC(C4)C2)C3)cc1
321 nM | CCOc1ccc(C[C@@H]2CN3C(=NC[C@@H]3CC)N2CCC2CC3CCC2C3)cc1 (stereo not given in full)
457 nM | COc1ccc(C[C@@H]2CN3C(=NC[C@H]3CC3CCCCC3)N2CCC23CC4CC(CC(C4)C2)C3)cc1
> 10000 nM | CCC[C@H]1CN=C2N(CC3CCC3)[C@@H](Cc3ccc(OC)cc3)CN21
> 10000 nM | COc1ccc(C[C@H]2CN3C(=NC[C@H]3CC3CCCCC3)N2CC2CCCC2)cc1
> 10000 nM | COc1ccc(C[C@H]2CN3C(=NC[C@@H]3C(C)C)N2CC2CCCC2)cc1
> 10000 nM | CC(C)C[C@H]1CN2C(=NC[C@@H]2C)N1CCCC1CCCCC1
> 10000 nM | CC(C)[C@H]1CN2C(=NC[C@@H]2C)N1CCCCC1CCCCC1
> 10000 nM | C[C@H]1CN2C(=NC[C@@H]2C)N1CCC12CC3CC(CC(C3)C1)C2
> 10000 nM | CCC[C@H]1CN=C2N(CC3CCC3)[C@H](Cc3ccc(OC)cc3)CN21
4920 nM | COc1ccc(C[C@H]2CN3C(=NC[C@@H]3C3CCCCC3)N2CCC23CC4CC(CC(C4)C2)C3)cc1
> 10000 nM | COc1ccc(C[C@@H]2CN3C(=NC[C@@H]3C3CCCCC3)N2CCC23CC4CC(CC(C4)C2)C3)cc1
> 10000 nM | COc1ccc(C[C@@H]2CN3C(=NC[C@H]3C3CCCCC3)N2CCC23CC4CC(CC(C4)C2)C3)cc1
2310 nM | CC(C)C[C@@H]1CN2C(=NC[C@@H]2C)N1CCC1CC2CCC1C2 (stereo not given in full)
5440 nM | CC(C)C[C@@H]1CN2C(=NC[C@@H]2C)N1CCCC1CCCCC1
5060 nM | CC1CCC(CN2C3=NC[C@H](C)N3C[C@@H]2C2CCCCC2)CC1 (stereo not given in full)
1770 nM | CC(C)C[C@@H]1CN2C(=NC[C@H]2C2CCCCC2)N1CCCC1CCCCC1
3740 nM | CC(C)C[C@@H]1CN2C(=NC[C@@H]2C2CCCCC2)N1CCCC1CCCCC1

SMILES | IC50
COc1ccc(C[C@H]2CN3C(=NC[C@@H]3C)N2CCC23CC4CC(CC(C4)C2)C3)cc1 | 1530 nM
CCOc1ccc(C[C@@H]2CN3C(=NC[C@@H]3C)N2CCC2CC3CCC2C3)cc1 (stereo not given in full) | 185 nM
CCCC[C@@H]1CN=C2N(CCC3CC4CCC3C4)[C@H](Cc3ccc(OC)cc3)CN21 (stereo not given in full) | 430 nM
C1CCC([C@H]2CN3C(=NC[C@H]3C3CCCCC3)N2CCC2CC3CCC2C3)CC1 (stereo not given in full) | 524 nM
CC(C)C[C@@H]1CN2C(=NC[C@H]2C2CCCCC2)N1CC1CCC(C)CC1 (stereo not given in full) | 738 nM
CC(C)C[C@@H]1CN2C(=NC[C@@H]2C2CCCCC2)N1CC1CCC(C)CC1 (stereo not given in full) | 999 nM
C1CCC([C@H]2CN3C(=NC[C@@H]3C3CCCCC3)N2CCC2CC3CCC2C3)CC1 (stereo not given in full) | 560 nM
